Experimental findings from US8895547B2, “Substituted phenyl-oxathiazine derivatives, method for producing them, drugs containing said compounds and the use thereof” (Sanofi, priority 2011, dated 2014) are described below.

The test addresses T1, human 11β-HSD1 (Homo sapiens, UniProt P28845).
T1 construct: host or cells: microsome fraction
Put plainly: Enzymatic 11beta-HSD1 test (SPA-based detection). The format is biochemical. Particulars: human 11β-HSD1 microsome fraction, [1,2-3H]-cortisone, NADPH, 37° C. 1 hour. In outline:
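Scintillation proximity detection: anti-cortisol antibody on SPA-PVT beads captured tritiated cortisol. The stop mix also contained 0.01 mM SSR110887 and was equilibrated 1 h at room temperature before counting. Cortisol came from [1,2-3H]-cortisone ([…]), turned over by human 11β-HSD1 microsomal protein (0.2 µg) with 0.25 mM NADPH in HEPES buffer, 37 °C, 1 h.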

T1 sequence (P28845 whole entry): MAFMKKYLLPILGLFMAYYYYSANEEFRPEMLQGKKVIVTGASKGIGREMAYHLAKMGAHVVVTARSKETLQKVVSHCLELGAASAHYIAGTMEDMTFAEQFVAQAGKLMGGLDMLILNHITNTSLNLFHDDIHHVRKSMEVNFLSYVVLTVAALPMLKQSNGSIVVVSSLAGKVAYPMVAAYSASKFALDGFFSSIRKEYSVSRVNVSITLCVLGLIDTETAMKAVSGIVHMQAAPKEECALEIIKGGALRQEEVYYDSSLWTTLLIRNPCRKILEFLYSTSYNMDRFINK

The IC50 is the concentration that inhibits the measured activity by half. Read a low IC50 as greater potency. On to `C[C@H](NC1=NS(=O)(=O)C(C)(c2cccc(N3CCN(S(C)(=O)=O)CC3)c2)C(C)(C)O1)c1ccccc1F` (stereo partly drawn) [Compound 35, [(S)-1-(2-Fluorophenyl)ethyl]-{5-[3-(4-methanesulfonylpiperazin-1-yl)-phenyl]-5,6,6-trimethyl-4,4-dioxo-5,6-dihydro-4H-4lambda6-[1,4,3]oxathiazin-2-yl}amine], for which the IC50 came out at 15 nM.

On to `CC1(C)OC(N[C@@H](CCO)c2ccccc2Cl)=NS(=O)(=O)C1c1ccc(-c2ccccc2)cc1` (stereo partly drawn) [Example 83, (S)-3-(5-Biphenyl-4-yl-6,6-dimethyl-4,4-dioxo-5,6-dihydro-4H-4lambda6-[1,4,3]oxathiazin-2-ylamino)-3-(2-chloro-phenyl)-propan-1-ol], for which it took 17 nM to reach half-maximal inhibition (IC50).

The molecule `CC1(C)OC(NC2CCCCC2)=NS(=O)(=O)C1c1ccc(-c2ccccc2)cc1` (stereo not drawn) [Example 3, (5-Biphenyl-4-yl-6,6-dimethyl-4,4-dioxo-5,6-dihydro-4H-4lambda6-[1,4,3]oxathiazin-2-yl)-cyclohexyl-amine] showed a 50% inhibitory concentration (IC50) of 1270 nM.

Consider `CC(C)(C)c1ccc(C2C(C)(C)OC(N[C@@H](CCO)c3ccccc3)=NS2(=O)=O)cc1` (stereo partly drawn) [Compound 60, (S)-3-[5-(4-tert-Butylphenyl)-6,6-dimethyl-4,4-dioxo-5,6-dihydro-4H-4lambda6-[1,4,3]oxathiazin-2-ylamino]-3-phenylpropan-1-ol], for which the midpoint of inhibition, the IC50, lay at 43 nM.

In the case of `CC1(C)OC(NC2CCCCC2)=NS(=O)(=O)C1c1cccc(OCc2ccccc2)c1` (stereo not drawn) [Example 19, [5-(3-Benzyloxy-phenyl)-6,6-dimethyl-4,4-dioxo-5,6-dihydro-4H-4lambda6-[1,4,3]oxathiazin-2-yl]-cyclohexyl-amine], 352 nM corresponded to half-maximal inhibition (IC50).

In turn, `CC1(C)OC(NC2CCCCC2)=NS(=O)(=O)C1c1cccc(Br)c1` (stereo not drawn) [Example 13, [5-(3-Bromophenyl)-6,6-dimethyl-4,4-dioxo-5,6-dihydro-4H-4lambda6-[1,4,3]oxathiazin-2-yl]-cyclohexyl-amine] yielded an IC50 of 47 nM.

In turn, `C[C@H](NC1=NS(=O)(=O)C(c2ccc(-c3cccc(C(N)=O)c3)nc2)C(C)(C)O1)c1ccccc1F` (stereo partly drawn) [Example 180, 3-(5-{2-[(S)-1-(2-fluorophenyl)-ethylamino]-6,6-dimethyl-4,4-dioxo-5,6-dihydro-4H-41ambda6-[1,4,3]oxathiazin-5-yl}-pyridin-2-yl)-benzamide] came in with an IC50 of 10 nM.

`CC1(C)OC(N[C@@H](CCO)c2ccccc2F)=NS(=O)(=O)C1(C)c1ccccc1` (stereo partly drawn) [Compound 48, (S)-3-(2-Fluorophenyl)-3-(5,6,6-trimethyl-4,4-dioxo-5-phenyl-5,6-dihydro-4H-4lambda6-[1,4,3]oxathiazin-2-ylamino)propan-1-ol]: the IC50 stood at 5 nM.

Take `CN(CCO)CCCc1ccc(C2C(C)(C)OC(N[C@@H](CCO)c3ccccc3F)=NS2(=O)=O)cc1` (stereo partly drawn) [Example 122]: the half-inhibitory concentration (IC50) came out at 35 nM.

`CC(C)(C)c1ccc(C2C(C)(C)OC(N[C@@H](CCO)c3ccccc3F)=NS2(=O)=O)cc1` (single isomer, unassigned) [Example 84] returned an IC50 of 15 nM.

The molecule `Cc1ccccc1-c1ccc(C2(C)C(C)(C)OC(N[C@@H](CCO)c3ccccc3F)=NS2(=O)=O)cc1` (stereo partly drawn) [Example 79, (S)-3-(2-Fluorophenyl)-3-[5,6,6-trimethyl-5-(2′-methyl-biphenyl-4-yl)-4,4-dioxo-5,6-dihydro-4H-4lambda6-[1,4,3]oxathiazin-2-ylamino]-propan-1-ol] came in with a concentration for half-maximal inhibition (IC50) of 8 nM.

Molecule `CC1(C)OC(N[C@@H](CCO)c2ccccc2)=NS(=O)(=O)C1c1ccc(OCc2ccccc2)cc1` (stereo partly drawn) [Example 4, (S)-3-[5-(4-Benzyloxy-phenyl)-6,6-dimethyl-4,4-dioxo-5,6-dihydro-4H-4lambda6-[1,4,3]oxathiazin-2-ylamino]-3-phenyl-propan-1-ol] gave an IC50 of 14 nM.

Molecule `C[C@H](NC1=NS(=O)(=O)C(C)(c2cccc(-c3ccccc3)c2)C(C)(C)O1)c1ccccc1F` (stereo partly drawn) [Example 73, (5-Biphenyl-3-yl-5,6,6-trimethyl-4,4-dioxo-5,6-dihydro-4H-4lambda6-[1,4,3]oxathiazin-2-yl)-[(S)-1-(2-fluorophenyl)-ethyl]-amine] showed an IC50 of 28 nM.

With `C[C@H](NC1=NS(=O)(=O)C(c2cccc(C(=O)NCc3ccccn3)c2)C(C)(C)O1)c1ccccc1F` (stereo partly drawn) [Example 194, 3-{2-[(S)-1-(2-fluorophenyl)-ethylamino]-6,6-dimethyl-4,4-dioxo-5,6-dihydro-4H-4lambda6-[1,4,3]oxathiazin-5-yl}-N-pyridin-2-ylmethyl-benzamide], inhibition was half-maximal at 14 nM (IC50).

In turn, `CC(=O)Oc1ccc(C2C(C)(C)OC(N[C@@H](CCO)c3ccccc3F)=NS2(=O)=O)cc1` (stereo partly drawn) [Example 155, Acetic acid 4-{2-[(S)-1-(2-fluorophenyl)-3-hydroxy-propylamino]-6,6-dimethyl-4,4-dioxo-5,6-dihydro-4H-4lambda6-[1,4,3]oxathiazin-5-yl}-phenyl ester] had a half-inhibitory concentration (IC50) of 17 nM.

With `CN1CCN(Cc2ccc(C3C(C)(C)OC(N[C@@H](CCO)c4ccccc4F)=NS3(=O)=O)cc2)CC1` (stereo partly drawn) [Example 136, (S)-3-{6,6-Dimethyl-5-[4-(4-methyl-piperazin-1-ylmethyl)-phenyl]-4,4-dioxo-5,6-dihydro-4H-4lambda6-[1,4,3]oxathiazin-2-ylamino}-3-(2-fluoro-phenyl)-propan-1-ol], inhibition was half-maximal at 63 nM (IC50).

On to `CC1(C)OC(N[C@@H](CCO)c2ccccc2F)=NS(=O)(=O)C1c1ccc(-c2ccccc2)nc1` (stereo partly drawn) [Example 165, (S)-3-[6,6-Dimethyl-4,4-dioxo-5-(6-phenyl-pyridin-3-yl)-5,6-dihydro-4H-4lambda6-[1,4,3]oxathiazin-2-ylamino]-3-(2-fluorophenyl)-propan-1-ol], for which the IC50 was 7 nM.

Turning to `CC1(C)OC(N[C@@H](CCO)c2ccccc2F)=NS(=O)(=O)C1c1ccc(C2CCN(CC(F)F)CC2)cc1` (stereo partly drawn) [Example 105], it took 8 nM to reach half-maximal inhibition (IC50).

`C[C@H](NC1=NS(=O)(=O)C(c2ccc(C3CCN(C4CC4)CC3)cc2)C(C)(C)O1)c1ccccc1F` (stereo partly drawn) [Example 172, {5-[4-(1-Cyclopropyl-piperidin-4-yl)-phenyl]-6,6-dimethyl-4,4-dioxo-5,6-dihydro-4H-4lambda6-[1,4,3]oxathiazin-2-yl}-[(S)-1-(2-fluorophenyl)-ethyl]-amine] yielded an IC50 of 55 nM.

Consider `CC1(C)OC(N[C@@H](CCO)c2ccccc2F)=NS(=O)(=O)C1c1ccc(N2CCN(CCC(F)(F)F)CC2)cc1` (single isomer, unassigned) [Example 182], for which the half-maximal inhibitory concentration (IC50) was 6 nM.

In the case of `Cc1ccc(C2C(C)(C)OC(N[C@@H](CCO)c3ccccc3)=NS2(=O)=O)cc1` (stereo partly drawn) [Example 11, (S)-3-(6,6-Dimethyl-4,4-dioxo-5-p-tolyl-5,6-dihydro-4H-4lambda6-[1,4,3]oxathiazin-2-ylamino)-3-phenyl-propan-1-ol], the IC50 is 9 nM.

The molecule `CN(C)Cc1ccc(-c2ccc(C3C(C)(C)OC(N[C@@H](CCO)c4ccccc4F)=NS3(=O)=O)cc2)cc1` (stereo partly drawn) [Example 123, (S)-3-[5-(4′-Dimethylaminomethyl-biphenyl-4-yl)-6,6-dimethyl-4,4-dioxo-5,6-dihydro-4H-4lambda6-[1,4,3]oxathiazin-2-ylamino]-3-(2-fluorophenyl)-propan-1-ol] registered an IC50 of 13 nM.

Molecule `CC1(C)OC(N[C@@H](CCO)c2ccccc2F)=NS(=O)(=O)C1c1ccc(N2CCCC2=O)cc1` (stereo partly drawn) [Example 132, 1-(4-{2-[(S)-1-(2-fluorophenyl)-3-hydroxy-propylamino]-6,6-dimethyl-4,4-dioxo-5,6-dihydro-4H-4lambda6-[1,4,3]oxathiazin-5-yl}-phenyl)-pyrrolidin-2-one] yielded a concentration for half-maximal inhibition (IC50) of 14 nM.

With `CC1(C)OC(N[C@@H](CCO)c2ccccc2F)=NS(=O)(=O)C1c1ccc(-c2ccc(C#N)cc2)cc1` (stereo partly drawn) [Example 95], 6 nM corresponded to half-maximal inhibition (IC50).

`CC1(C)OC(NC2CCCCC2)=NS(=O)(=O)C1c1ccccc1` (stereo not drawn) [Example 1, Cyclohexyl-(6,6-dimethyl-4,4-dioxo-5-phenyl-5,6-dihydro-4H-4lambda6-[1,4,3]oxathiazin-2-yl)-amine] returned an IC50 of 113 nM.

For `C[C@H](NC1=NS(=O)(=O)C(C)(c2cccc(Br)c2)C(C)(C)O1)c1ccccc1F` (stereo partly drawn) [Example 30, [5-(3-Bromophenyl)-5,6,6-trimethyl-4,4-dioxo-5,6-dihydro-4H-4lambda6-[1,4,3]oxathiazin-2-yl]-[(S)-1-(2-fluorophenyl)-ethyl]-amine], the half-inhibitory concentration (IC50) stood at 7 nM.

As for `CC1(C)OC(N[C@@H](CCO)c2ccccc2F)=NS(=O)(=O)C1(C)c1cccc(-c2ccc(F)cc2)c1` (stereo partly drawn) [Example 71, (S)-3-[5-(4′-Fluorobiphenyl-3-yl)-5,6,6-trimethyl-4,4-dioxo-5,6-dihydro-4H-4lambda6-[1,4,3]oxathiazin-2-ylamino]-3-(2-fluorophenyl)-propan-1-ol], the IC50 was 22 nM.

Turning to `CC1(C)OC(N[C@@H](CCO)c2ccccc2)=NS(=O)(=O)C1c1cccc(Br)c1` (stereo partly drawn) [Example 7, (S)-3-[5-(3-Bromophenyl)-6,6-dimethyl-4,4-dioxo-5,6-dihydro-4H-4lambda6-[1,4,3]oxathiazin-2-ylamino]-3-phenyl-propan-1-ol], the IC50 was found to be 20 nM.

For `CC1(C)OC(N[C@@H](CCO)c2ccccc2)=NS(=O)(=O)C1(C)c1cccc(N2CCCC2)c1` (stereo partly drawn) [Compound 38, (S)-3-Phenyl-3-[5,6,6-trimethyl-4,4-dioxo-5-(3-pyrrolidin-1-ylphenyl)-5,6-dihydro-4H-4lambda6-[1,4,3]oxathiazin-2-ylamino]propan-1-ol], 19 nM corresponded to half-maximal inhibition (IC50).

In the case of `C[C@H](NC1=NS(=O)(=O)C(c2cccc(C3CCN(C)CC3)c2)C(C)(C)O1)c1ccccc1F` (stereo partly drawn) [Example 179, {6,6-Dimethyl-5-[3-(1-methyl-piperidin-4-yl)-phenyl]-4,4-dioxo-5,6-dihydro-4H-4lambda6-[1,4,3]oxathiazin-2-yl}-[(S)-1-(2-fluorophenyl)-ethyl]-amine], inhibition was half-maximal at 34 nM (IC50).
